Experimental data published in US20230265116A1, “DEGRADATION OF (EGFR) BY CONJUGATION OF EGFR INHIBITORS WITH E3 LIGASE LIGAND AND METHODS OF USE” (BEIGENE, LTD., priority 2020, published 2023).
Like-named read-outs stand apart in the source and are kept apart here.

How the values were obtained:
[1] = molecular target: T1, EGFR L858R/T790M/C797S (BaF3-LTC cells) (Homo sapiens, UniProt P00533, C797S/L858R/T790M); assay: EGFR degradation HTRF assay, BaF3-LTC cells; type: cell-based
T1 construct: expressed in transfected cells; host or cells: BaF3
Outline: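 EGFR remaining after a 16 h, 37 °C exposure (8 doses, 5-fold steps from 10 uM final, 0.2% DMSO) was quantified by HTRF antibodies in cell lysate. Percent inhibition relative to DMSO control was fitted by four-parameter logistic to give DC50; Dmax denotes maximal degradation.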

[2] = system: EGFR Del19/T790M/C797S (H1975-clone #28); assay: EGFR degradation HTRF assay, H1975-clone #28 DTC cells; type: cell-based
Outline: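 The test uses H1975 clonal lines carrying lentiviral mutant EGFR with endogenous copies removed, treated 16h at 37° C., 5% CO2. EGFR left in the lysate is quantified by HTRF, and DC50 is derived from an 8-dose curve starting at 10 uM final.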

[3] = BaF3-LTC cells; EGFR degradation, IC50 (DC50) from curve fit; read-out: DC50(nM) BaF3-LTC
[4] = BaF3-LTC cells; maximum percentage of inhibition (degradation); read-out: Dmax (%) BaF3-LTC
[5] = H1975 # 28 DTC cells; EGFR degradation, IC50 (DC50) from curve fit; read-out: DC50(nM) H1975 # 28 DTC
[6] = H1975 # 28 DTC cells; maximum percentage of inhibition (degradation)

T1 sequence (P00533 25-1210 T790M/C797S/L858R): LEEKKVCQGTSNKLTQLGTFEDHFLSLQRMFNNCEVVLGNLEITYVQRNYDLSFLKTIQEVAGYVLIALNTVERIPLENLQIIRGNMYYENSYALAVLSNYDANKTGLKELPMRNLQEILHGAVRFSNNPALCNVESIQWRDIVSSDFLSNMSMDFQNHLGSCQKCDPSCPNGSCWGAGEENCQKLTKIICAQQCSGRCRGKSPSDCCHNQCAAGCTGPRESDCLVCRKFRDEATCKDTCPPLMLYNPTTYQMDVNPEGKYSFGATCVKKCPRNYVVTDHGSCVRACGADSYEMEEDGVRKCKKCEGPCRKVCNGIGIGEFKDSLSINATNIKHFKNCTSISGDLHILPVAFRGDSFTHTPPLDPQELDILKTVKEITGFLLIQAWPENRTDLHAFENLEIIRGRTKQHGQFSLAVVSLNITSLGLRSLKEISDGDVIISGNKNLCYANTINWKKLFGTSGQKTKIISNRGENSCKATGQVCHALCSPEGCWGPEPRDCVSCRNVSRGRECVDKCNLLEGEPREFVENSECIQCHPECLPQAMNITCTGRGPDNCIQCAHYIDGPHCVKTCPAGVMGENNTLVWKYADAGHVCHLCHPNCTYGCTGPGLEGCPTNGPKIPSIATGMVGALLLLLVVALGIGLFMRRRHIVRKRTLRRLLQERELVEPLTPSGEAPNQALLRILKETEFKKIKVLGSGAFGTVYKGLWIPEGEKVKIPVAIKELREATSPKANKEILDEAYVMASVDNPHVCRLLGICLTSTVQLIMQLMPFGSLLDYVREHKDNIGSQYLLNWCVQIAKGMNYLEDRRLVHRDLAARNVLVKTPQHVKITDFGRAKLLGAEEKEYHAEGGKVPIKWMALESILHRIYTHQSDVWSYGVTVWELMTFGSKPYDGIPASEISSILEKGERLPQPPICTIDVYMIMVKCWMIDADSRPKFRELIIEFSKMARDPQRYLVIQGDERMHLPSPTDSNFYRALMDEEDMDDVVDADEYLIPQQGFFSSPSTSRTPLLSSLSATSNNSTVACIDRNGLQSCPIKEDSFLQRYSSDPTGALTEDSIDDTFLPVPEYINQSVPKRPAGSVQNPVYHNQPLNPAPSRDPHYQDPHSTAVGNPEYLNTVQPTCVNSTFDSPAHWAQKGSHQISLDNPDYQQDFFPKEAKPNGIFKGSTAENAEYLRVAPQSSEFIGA

SMILES | DC50 [1, 3] [nM] | Dmax [1, 4] [%] | DC50 [2, 5] [nM] | Dmax (%) H1975 # 28 DTC [2, 6] [%] | DC50 ([1]; read-out: DC50(nM) BaF3-LTC; BaF3-LTC cells; EGFR degradation, IC50 (DC50) from curve fit) [nM] | Dmax ([1]; read-out: Dmax (%) BaF3-LTC, BaF3-LTC cells; maximum percentage of inhibition (degradation)) [%] | DC50 ([2]; read-out: DC50(nM) H1975 # 28 DTC; H1975 # 28 DTC cells; EGFR degradation, IC50 (DC50) from curve fit) [nM]
CCc1ccc2c(P(C)(C)=O)c(Nc3nc(Nc4cc(CC)c(N5CCC(N6CCN(CCc7cccc8c7n(C)c(=O)n8C7CCC(=O)NC7=O)CC6)CC5)cc4OC)ncc3Br)ccc2n1 (stereo not shown) [Example 451, 3-(4-(2-(4-(1-(4-((5-bromo-4-((5-(dimethylphosphoryl)-2-ethylquinolin-6-yl)amino)pyrimidin-2-yl)amino)-2-ethyl-5-methoxyphenyl)piperidin-4-yl)piperazin-1-yl)ethyl)-3-methyl-2-oxo-2,3-dihydro-1H-benzo[d]imidazol-1-yl)piperidine-2,6-dione] | 3.64 | 95.4 | 0.612 | 70.68 |  |  | 
CCc1cc(Nc2ncc(Br)c(Nc3ccc4nc(C)ccc4c3P(C)(C)=O)n2)c(OC2CC2)cc1N1CCC(N2CCN(CCc3cc4oc(=O)n(C5CCC(=O)NC5=O)c4cc3F)CC2)CC1 (stereo not shown) [Example 601, 3-(6-(2-(4-(1-(4-((5-bromo-4-((5-(dimethylphosphoryl)-2-methylquinolin-6-yl)amino)pyrimidin-2-yl)amino)-5-cyclopropoxy-2-ethylphenyl)piperidin-4-yl)piperazin-1-yl)ethyl)-5-fluoro-2-oxobenzo[d]oxazol-3(2H)-yl)piperidine-2,6-dione] | 8.64 | 89.5 | 0.632 | 77.35 |  |  | 
CCOc1cc(N2CCC(N3CCN(CCc4c(F)ccc5c4n(CC)c(=O)n5C4CCC(=O)NC4=O)CC3)CC2)c(CC)cc1Nc1ncc(Br)c(Nc2ccc3nc(CC)ccc3c2P(C)(C)=O)n1 (stereo not shown) [Example 558, 3-(4-(2-(4-(1-(4-((5-bromo-4-((5-(dimethylphosphoryl)-2-ethylquinolin-6-yl)amino)pyrimidin-2-yl)amino)-5-ethoxy-2-ethylphenyl)piperidin-4-yl)piperazin-1-yl)ethyl)-3-ethyl-5-fluoro-2-oxo-2,3-dihydro-1H-benzo[d]imidazol-1-yl)piperidine-2,6-dione] | 13.1 |  | 2.59 | 85.18 |  |  | 
CCOc1cc(N2CCC(N3CCN(CCc4cc(F)c([C@H]5CCC(=O)NC5=O)c(F)c4)CC3)CC2)c(CC)cc1Nc1ncc(Cl)c(Nc2cc(F)c3nc(CC)ccc3c2P(C)(C)=O)n1 [Example 730, (R)-3-(4-(2-(4-(1-(4-((5-chloro-4-((5-(dimethylphosphoryl)-2-ethyl-8-fluoroquinolin-6-yl)amino)pyrimidin-2-yl)amino)-5-ethoxy-2-ethylphenyl)piperidin-4-yl)piperazin-1-yl)ethyl)-2,6-difluorophenyl)piperidine-2,6-dione] | 81.1 |  | 8.9 | 81.41 |  |  | 
CCOc1cc(N2CCC(N3CCN(C(=O)[C@H]4CN(c5cc(F)cc6c5oc(=O)n6C5CCC(=O)NC5=O)CC4(C)C)CC3)CC2)c(CC)cc1Nc1ncc(Br)c(Nc2ccc3nc(CC)ccc3c2P(C)(C)=O)n1 (stereo partly drawn) [Example 480, 3-(7-((R)-4-(4-(1-(4-((5-bromo-4-((5-(dimethylphosphoryl)-2-ethylquinolin-6-yl)amino)pyrimidin-2-yl)amino)-5-ethoxy-2-ethylphenyl)piperidin-4-yl)piperazine-1-carbonyl)-3,3-dimethylpyrrolidin-1-yl)-5-fluoro-2-oxobenzo[d]oxazol-3(2H)-yl)piperidine-2,6-dione] |  |  |  | 69.54 | 18.9 | 89.4 | 7.82
CCc1ccc2c(P(C)(C)=O)c(Nc3nc(Nc4cc(CC)c(N5CCC(N6CCN(C(=O)[C@@H]7CCN(c8cc(F)c([C@H]9CCC(=O)NC9=O)c(F)c8)C7)CC6)CC5)cc4OC(F)(F)F)ncc3Br)ccc2n1 [Example 649, (R)-3-(4-((R)-3-(4-(1-(4-((5-bromo-4-((5-(dimethylphosphoryl)-2-ethylquinolin-6-yl)amino)pyrimidin-2-yl)amino)-2-ethyl-5-(trifluoromethoxy)phenyl)piperidin-4-yl)piperazine-1-carbonyl)pyrrolidin-1-yl)-2,6-difluorophenyl)piperidine-2,6-dione] | 31.8 | 78.6 | 6.94 | 75.95 |  |  | 
CCc1cc(Nc2ncc(Br)c(Nc3ccc4nc(C)ncc4c3P(C)(C)=O)n2)c(OC)cc1N1CCC(N2CCN(C(=O)[C@H]3CN(c4cc(F)c([C@H]5CCC(=O)NC5=O)c(F)c4)CC3(C)C)CC2)CC1 [Example 740, (R)-3-(4-((R)-4-(4-(1-(4-((5-bromo-4-((5-(dimethylphosphoryl)-2-methylquinazolin-6-yl)amino)pyrimidin-2-yl)amino)-2-ethyl-5-methoxyphenyl)piperidin-4-yl)piperazine-1-carbonyl)-3,3-dimethylpyrrolidin-1-yl)-2,6-difluorophenyl)piperidine-2,6-dione] | 4.11 |  | 0.717 | 87.27 |  |  | 
CCc1cc(Nc2ncc(Br)c(Nc3ccc4c(=O)n(C)ncc4c3P(C)(C)=O)n2)c(OC)cc1N1CCC(N2CCN(CCc3ccc4c(c3)oc(=O)n4C3CCC(=O)NC3=O)CC2)CC1 (stereo not shown) [Example 523, 3-(6-(2-(4-(1-(4-((5-bromo-4-((5-(dimethylphosphoryl)-2-methyl-1-oxo-1,2-dihydrophthalazin-6-yl)amino)pyrimidin-2-yl)amino)-2-ethyl-5-methoxyphenyl)piperidin-4-yl)piperazin-1-yl)ethyl)-2-oxobenzo[d]oxazol-3(2H)-yl)piperidine-2,6-dione] | 1.97 | 95.9 | 0.571 | 72.16 |  |  | 
CCOc1cc(N2CCC(N3CCN(CCc4cccc5c4C(C)(C)C(=O)N5C4CCC(=O)NC4=O)[C@H](CO)C3)CC2)c(CC)cc1Nc1ncc(Br)c(Nc2ccc3c(=O)n(CC)ncc3c2P(C)(C)=O)n1 (stereo partly drawn) [Example 641, 3-(4-(2-((S)-4-(1-(4-((5-bromo-4-((5-(dimethylphosphoryl)-2-ethyl-1-oxo-1,2-dihydrophthalazin-6-yl)amino)pyrimidin-2-yl)amino)-5-ethoxy-2-ethylphenyl)piperidin-4-yl)-2-(hydroxymethyl)piperazin-1-yl)ethyl)-3,3-dimethyl-2-oxoindolin-1-yl)piperidine-2,6-dione] | 7.79 | 96.1 | 0.666 | 76.33 |  |  | 
CCc1cc(Nc2ncc(Br)c(Nc3ccc4nc(C)ccc4c3P(C)(C)=O)n2)c(OC)cc1N1CCC(N2CCN(C(=O)Cc3cccc4c3n(C)c(=O)n4C3CCC(=O)NC3=O)CC2)CC1 (stereo not shown) [Example 697, 3-(4-(2-(4-(1-(4-((5-bromo-4-((5-(dimethylphosphoryl)-2-methylquinolin-6-yl)amino)pyrimidin-2-yl)amino)-2-ethyl-5-methoxyphenyl)piperidin-4-yl)piperazin-1-yl)-2-oxoethyl)-3-methyl-2-oxo-2,3-dihydro-1H-benzo[d]imidazol-1-yl)piperidine-2,6-dione] | 9.65 | 94.1 | 1.19 | 71.39 |  |  | 
CCc1cc(Nc2ncc(Br)c(Nc3ccc4nc(C(C)(C)O)ccc4c3P(C)(C)=O)n2)c(OC)cc1N1CCC(N2CCN(C(=O)[C@@H]3CCN(c4cc(F)c(C5CCC(=O)NC5=O)c(F)c4)C3)CC2)CC1 (stereo partly drawn) [Example 680, 3-(4-((R)-3-(4-(1-(4-((5-bromo-4-((5-(dimethylphosphoryl)-2-(2-hydroxypropan-2-yl)quinolin-6-yl)amino)pyrimidin-2-yl)amino)-2-ethyl-5-methoxyphenyl)piperidin-4-yl)piperazine-1-carbonyl)pyrrolidin-1-yl)-2,6-difluorophenyl)piperidine-2,6-dione] | 4.96 | 95.1 | 0.763 | 85.2 |  |  | 
CCc1cc(Nc2ncc(Br)c(Nc3ccc4ncncc4c3P(C)(C)=O)n2)c(OC)cc1N1CCC(N2CCN(C(=O)[C@@H]3CCN(c4cc(F)c([C@H]5CCC(=O)NC5=O)c(F)c4)C3)CC2)CC1 [Example 668, (R)-3-(4-((R)-3-(4-(1-(4-((5-bromo-4-((5-(dimethylphosphoryl)quinazolin-6-yl)amino)pyrimidin-2-yl)amino)-2-ethyl-5-methoxyphenyl)piperidin-4-yl)piperazine-1-carbonyl)pyrrolidin-1-yl)-2,6-difluorophenyl)piperidine-2,6-dione] | 2.32 | 91.5 | 0.579 | 86.5 |  |  | 
CCc1cc(Nc2ncc(Br)c(Nc3ccc4c(=O)n(C5CC5)ncc4c3P(C)(C)=O)n2)c(OC)cc1N1CCC(N2CCN(CCc3ccc4c(c3)oc(=O)n4C3CCC(=O)NC3=O)CC2)CC1 (stereo not shown) [Example 522, 3-(6-(2-(4-(1-(4-((5-bromo-4-((2-cyclopropyl-5-(dimethylphosphoryl)-1-oxo-1,2-dihydrophthalazin-6-yl)amino)pyrimidin-2-yl)amino)-2-ethyl-5-methoxyphenyl)piperidin-4-yl)piperazin-1-yl)ethyl)-2-oxobenzo[d]oxazol-3(2H)-yl)piperidine-2,6-dione] | 1.43 | 95.3 | 0.611 | 75.25 |  |  | 
